Measurements as given in ChEMBL document CHEMBL1157827, “The synthesis and biological evaluation of quinolyl-piperazinyl piperidines as potent serotonin 5-HT1A antagonists” (J Med Chem, 2010).
One block for each compound: values may come before it. Activity calls are given as the source filed them. The calls are words filed in the database; no cut-off is given here.

Assays:
in vitro [1] = details: human, liver microsomes
Description: Half life in human liver microsomes at 1 uM after 20 mins

[2] = biological target: T1, 5-hydroxytryptamine receptor 1A (Homo sapiens, UniProt P08908)
T1 sequence (P08908 whole entry): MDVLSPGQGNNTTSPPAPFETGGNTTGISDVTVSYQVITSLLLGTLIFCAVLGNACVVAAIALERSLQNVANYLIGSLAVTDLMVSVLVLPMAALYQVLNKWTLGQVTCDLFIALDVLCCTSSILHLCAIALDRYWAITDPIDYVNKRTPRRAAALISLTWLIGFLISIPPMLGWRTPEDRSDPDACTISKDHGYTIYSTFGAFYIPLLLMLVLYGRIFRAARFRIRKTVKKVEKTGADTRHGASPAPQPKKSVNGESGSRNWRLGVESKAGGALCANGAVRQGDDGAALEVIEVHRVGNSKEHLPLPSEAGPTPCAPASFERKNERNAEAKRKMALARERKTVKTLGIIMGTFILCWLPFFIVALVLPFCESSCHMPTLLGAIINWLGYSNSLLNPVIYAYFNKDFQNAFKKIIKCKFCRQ

in vitro [3] = details: rat, liver microsomes
Description: Half life in rat liver microsomes at 1 uM after 20 mins

[4] = biological target: T1, 5-hydroxytryptamine receptor 1A; test: biochemical
Description: (§3) Displacement of [3H]8-OH-DPAT from human 5HT1A receptor expressed in CHO cells

[5] = Volume of distribution at steady state in Sprague-Dawley rat at 1 mg/kg, iv administered as single dose by LC/MS/MS analysis; type: ADME, organism-based; set-up: dose 1 mg/kg, route intravenous; details: in vivo, read-out: Vdss
[6] = (§1) Oral bioavailability in Sprague-Dawley rat at 3 mg/kg administered as single dose by LC/MS/MS analysis; type: ADME, organism-based; details: Sprague-Dawley, in vivo
[7] = Clearance in Sprague-Dawley rat at 1 mg/kg, iv administered as single dose by LC/MS/MS analysis; type: ADME, organism-based; set-up: dose 1 mg/kg, route intravenous; details: in vivo
[8] = (§2) AUC in Sprague-Dawley rat at 3 mg/kg, po administered as single dose by LC/MS/MS analysis; type: ADME, organism-based, Plasma; set-up: dose 3 mg/kg, route oral; details: Sprague-Dawley, plasma
[9] = Cmax in Sprague-Dawley rat at 3 mg/kg, po administered as single dose by LC/MS/MS analysis; type: ADME, organism-based; set-up: dose 3 mg/kg, route oral; details: in vivo
[10] = Ratio of drug level in brain to plasma in Sprague-Dawley rat at 3 mg/kg, po administered as single dose; type: ADME, organism-based; set-up: dose 3 mg/kg, route oral; details: read-out: BPR
[11] = Tmax in Sprague-Dawley rat at 3 mg/kg, po administered as single dose by LC/MS/MS analysis; type: ADME, organism-based; set-up: dose 3 mg/kg, route oral; details: in vivo
[12] = Half life in Sprague-Dawley rat at 3 mg/kg, po administered as single dose by LC/MS/MS analysis; type: ADME, organism-based; set-up: dose 3 mg/kg, route oral; details: in vivo
Plasma = test: Drug level in Sprague-Dawley rat plasma at 3 mg/kg, po administered as single dose by LC/MS/MS analysis; type: ADME, organism-based; set-up: dose 3 mg/kg, route oral; details: in vivo
Rattus norvegicus [13] = test: Cognitive enhancing effect in po dosed Long-Evans rat assessed as minimal effective dose for reversal of 48 hrs delay-induced cognitive deficit measured after 1 hr by novel object recognition test; type: functional; details: read-out: MED
Rattus norvegicus [14] = test: Inhibition of 8-OH-DPAT-induced decrease in extracellular serotonin level Sprague-Dawley rat cortex at 10 mg/kg, po administered 30 mins before 8-OH-DPAT challenge; type: functional, organism-based; set-up: dose 10 mg/kg
Rattus norvegicus [15] = test: Effect on obsessive compulsive behavior in Sprague-Dawley rat assessed as inhibition of polydipsia stimulated by food intake of a schedule of every 2 minutes for 2 hrs at 5.6 mg/kg, ip after 30 mins; type: functional, organism-based; set-up: dose 5.6 mg/kg
Rattus norvegicus [16] = test: as §1; type: ADME, organism-based; details: in vivo
Rattus norvegicus [17] = test: Cognitive enhancing effect in Long-Evans rat assessed as increase in dwell time within trigger zone during acquisition training at 3 mg/kg, po by atlantis water maze test; type: functional, organism-based; set-up: dose 3 mg/kg
Rattus norvegicus [18] = test: Enhancement of fluoxetine-induced inhibition of polydipsia stimulated by food intake of a schedule of every 2 minutes for 2 hrs in Sprague-Dawley rat assessed as minimal effective dose administered 30 mins before fluoxetine challenge measured after 30 mins; type: functional; details: read-out: MED
Rattus norvegicus [19] = test: Effect on obsessive compulsive behavior in Sprague-Dawley rat assessed as inhibition of polydipsia stimulated by food intake of a schedule of every 2 minutes for 2 hrs at 10 mg/kg, po after 30 mins; type: functional, organism-based; set-up: dose 10 mg/kg
Rattus norvegicus [20] = test: Cognitive enhancing effect in po dosed Long-Evans rat assessed as minimal effective dose for reversal of MK-801-induced memory deficit administered 30 mins prior to MK801 challenge measured after 1 hr by novel object recognition test; type: functional; details: read-out: MED
Rattus norvegicus [21] = test: as §2; type: ADME, organism-based, Plasma; set-up: dose 3 mg/kg, route oral; details: in vivo
[22] = biological target: T1, 5-hydroxytryptamine receptor 1A; details: cho
Description: as §3

Rattus norvegicus [23] = test: Cognitive enhancing effect in Long-Evans rat assessed as increase in dwell time within trigger zone during acquisition training at 10 mg/kg, po by atlantis water maze test; type: functional, organism-based; set-up: dose 10 mg/kg
Rattus norvegicus [24] = test: Cognitive enhancing effect in Long-Evans rat assessed as decrease in mean escape latency at 3 to 10 mg/kg, po by atlantis water maze test; type: functional, organism-based
Rattus norvegicus [25] = test: Increase in fluoxetine-induced increase in serotonin level in Sprague-Dawley rat frontal cortex at 10 mg/kg, po administered 30 mins before fluoxetine challenge measured after 20 mins by microdialysis assay relative to basal level; type: functional
Rattus norvegicus [26] = test: Effect of noncontact penile erection in Sprague-Dawley rat at 10 mg/kg, po QD for 14 days measured after day 14; type: functional, organism-based; set-up: dose 10 mg/kg
Rattus norvegicus [27] = test: Cognitive enhancing effect in po dosed Long-Evans rat assessed as minimal effective dose for reversal of scopolamine-induced memory deficit administered 30 mins prior to MK801 challenge measured after 1 hr by novel object recognition test; type: functional; details: read-out: MED
Rattus norvegicus [28] = test: Effect of noncontact penile erection in Sprague-Dawley rat at 10 mg/kg, po; type: functional, organism-based; set-up: dose 10 mg/kg
Rattus norvegicus [29] = test: In vivo receptor occupancy of 5HT1A receptor Long-Evans rat […] hippocampus at 0.1 to 10 mg/kg, po by [3H]WAY100635 displacement assay; type: functional; details: dose mg/kg 0.1-10
Rattus norvegicus [30] = test: Effect on obsessive compulsive behavior in po dosed Sprague-Dawley rat assessed as enhancement of fluoxetine-induced inhibition of polydipsia stimulated by food intake of a schedule of every 2 minutes for 2 hrs administered 30 mins before fluoxetine challenge measured after 30 mins; type: functional, organism-based
Rattus norvegicus [31] = test: Cognitive enhancing effect in po dosed Long-Evans rat assessed as reversal of 48 hrs delay-induced cognitive deficit at 0.1 mg/kg, po measured after 1 hr by novel object recognition test in presence of 0.5 mg/kg acetylcholinesterase inhibitor donepazil; type: functional, organism-based
Rattus norvegicus [32] = test: Increase in acetylcholine level in Sprague-Dawley rat dorsal hippocampus at 10 mg/kg, po after 40 to 200 mins microdialysis assay; type: functional, organism-based; set-up: dose 10 mg/kg
Rattus norvegicus [33] = test: Antidepressant activity in Sprague-Dawley rat assessed as inhibition of olfactory bulbectomy-induced hyperlocomotor activity at 5.6 mg/kg, ip QD fro 7 days measured after 14 days post-surgery; type: functional, organism-based; set-up: dose 5.6 mg/kg
Mus musculus = test: Cognitive enhancing effect in po dosed transgenic 2576 mouse overexpressing human APP K670N/M671L double mutant assessed as minimal effective dose for enhancement of contextual memory measured after 1 hr by contextual fear conditioning assay; type: functional; details: read-out: MED
Rattus norvegicus [34] = test: Effect on serotonin release in Sprague-Dawley rat cortex at 10 mg/kg, po after 40 mins microdialysis assay; type: functional, organism-based; set-up: dose 10 mg/kg
Rattus norvegicus [35] = test: In vivo receptor occupancy of 5HT1A receptor Long-Evans rat frontal cortex at 0.1 to 10 mg/kg, po by [3H]WAY100635 displacement assay; type: functional; details: dose mg/kg 0.1-10
Rattus norvegicus [36] = test: Inhibition of fluoxetine-induced decrease in noncontact penile erection in Sprague-Dawley rat at 10 mg/kg, po coadministered with fluoxetine; type: functional, organism-based; set-up: dose 10 mg/kg
Rattus norvegicus [37] = test: Induction of sexual dysfunction in Sprague-Dawley rat assessed as decrease in noncontact penile erection at 10 mg/kg, ip QD for 14 days measured after day 14; type: organism-based; set-up: dose 10 mg/kg, route intraperitoneal; scale not given: the % may be the effect or the level left; details: in vivo, 336 h
Rattus norvegicus [38] = test: Inhibition of fluoxetine-induced decrease in noncontact penile erection in Sprague-Dawley rat at 10 mg/kg, po coadministered with fluoxetine QD for 14 days measured after day 14; type: functional, organism-based; set-up: dose 10 mg/kg
Rattus norvegicus [39] = test: Enhancement of fluoxetine-induced inhibition of olfactory bulbectomy-mediated hyperlocomotor activity in Sprague-Dawley rat at 10 mg/kg, po coadministered with fluoxetine QD for 7 days measured after 14 days post-surgery; type: functional, organism-based; set-up: dose 10 mg/kg
Rattus norvegicus [40] = test: Cognitive enhancing effect in Long-Evans rat assessed as effect on swim speed during acquisition training at 3 to 10 mg/kg, po by atlantis water maze test; type: functional, organism-based

half-life at 20 min, 1 µM (in vitro [1]): 5 min | IC50 [2]: 20 nM | half-life at 20 min, 1 µM (in vitro [3]): < 1 min | Ki [4]: 0.47 nM
Compound: COc1cc(N2CCN(C3CCN(c4ccc(F)c5cc(F)cnc45)CC3)CC2)c2ncccc2c1

half-life at 20 min, 1 µM (in vitro [1]): 13 min | IC50 [2]: 30 nM | half-life at 20 min, 1 µM (in vitro [3]): 4 min | Ki [4]: 2.1 nM
Compound: COc1cc(N2CCN(C3CCN(c4cccc5c(OC)cc(C(F)(F)F)nc45)CC3)CC2)c2ncccc2c1

half-life at 20 min, 1 µM (in vitro [1]): 27 min | IC50 [2]: 15 nM | half-life at 20 min, 1 µM (in vitro [3]): 9 min | Ki [4]: 0.87 nM
Compound: COc1cc(N2CCN(C3CCN(c4ccc(F)c5cc(C(F)(F)F)cnc45)CC3)CC2)c2ncccc2c1

half-life at 20 min, 1 µM (in vitro [1]): 10 min | IC50 [2]: 30 nM | half-life at 20 min, 1 µM (in vitro [3]): 4 min
Compound: COc1cc(N2CCN(C3CCN(c4cccc5cc(C(F)(F)F)cnc45)CC3)CC2)c2ncccc2c1

More lines, now with the values behind:

Compound: COc1cc(N2CCN(C3CCN(c4cccc5c(C)cc(C)nc45)CC3)CC2)c2ncccc2c1
half-life at 20 min, 1 µM (in vitro [1]): < 1 min | IC50 [2]: 4.8 nM | half-life at 20 min, 1 µM (in vitro [3]): 4 min | Ki [4]: 0.63 nM

Compound: COc1cc(N2CCN(C3CCN(c4cccc5cccnc45)CC3)CC2)c2ncccc2c1
Vd [5]: 2.8 L/kg | bioavailability [6]: 27% | clearance [7]: 38.7 mL/min/kg | AUC [8]: 360 ng·h/mL | half-life at 20 min, 1 µM (in vitro [1]): 3 min | Cmax [9]: 130 ng/mL | Kp [10]: 2.8 | Tmax [11]: 60 min | half-life [12]: 72 min | half-life at 20 min, 1 µM (in vitro [3]): 2 min | concentration (Plasma): 200 nM

Compound: COc1cc(N2CCN(C3CCN(c4cccc5ccc(C(F)(F)F)nc45)CC3)CC2)c2ncccc2c1
half-life at 20 min, 1 µM (in vitro [1]): 3 min | IC50 [2]: 23 nM | half-life at 20 min, 1 µM (in vitro [3]): 2 min | Ki [4]: 1.8 nM

Compound: COc1cc(N2CCN(C3CCN(c4cc(Br)cc5cccnc45)CC3)CC2)c2ncccc2c1
half-life at 20 min, 1 µM (in vitro [1]): 2 min | IC50 [2]: 10 nM | half-life at 20 min, 1 µM (in vitro [3]): 2 min | Ki [4]: 0.61 nM

Compound: COc1cc(N2CCN(C3CCN(c4ccc(F)c5cccnc45)CC3)CC2)c2ncccc2c1
minimal effective dose (Rattus norvegicus [13]): 0.3 mg/kg | Activity (Rattus norvegicus [14]): Active | Activity (Rattus norvegicus [15]): inactive | Vd [5]: 2.6 L/kg | F (Rattus norvegicus [16]): 33% | Activity (Rattus norvegicus [17]): inactive | minimal effective dose (Rattus norvegicus [18]): 3 mg/kg | Activity (Rattus norvegicus [19]): inactive | minimal effective dose (Rattus norvegicus [20]): 1 mg/kg | AUC (Rattus norvegicus [21]): 472 ng·h/mL | half-life at 20 min, 1 µM (in vitro [1]): 6 min | IC50 [2]: 2.7 nM | Ki [22]: 0.4 nM | Cmax [9]: 247 ng/mL | Activity (Rattus norvegicus [23]): Active | Activity (Rattus norvegicus [24]): Active | Activity (Rattus norvegicus [25]): 120% | Activity (Rattus norvegicus [26]): inactive | minimal effective dose (Rattus norvegicus [27]): 0.3 mg/kg | Activity (Rattus norvegicus [28]): inactive | Activity (Rattus norvegicus [29]): 20% | Kp [10]: 1.3 | Activity (Rattus norvegicus [30]): Dose-dependent effect | Activity (Rattus norvegicus [31]): Active | Tmax [11]: 48 min | Activity (Rattus norvegicus [32]): Active | Activity (Rattus norvegicus [33]): inactive | minimal effective dose (Mus musculus): 0.3 mg/kg | Activity (Rattus norvegicus [34]): inactive | half-life [12]: 66 min | Activity (Rattus norvegicus [35]): 20% | half-life at 20 min, 1 µM (in vitro [3]): 2 min | Activity (Rattus norvegicus [36]): Active | Activity (Rattus norvegicus [37]): 54% | Activity (Rattus norvegicus [38]): Active | Activity (Rattus norvegicus [39]): Active | Activity (Rattus norvegicus [40]): inactive
